pIC50: −log10 of the molar value.
Key:
[1] = target: Programmed cell death protein 1/Programmed cell death 1 ligand 1 (Homo sapiens, UniProt Q9NZQ7); experiment: Inhibition of PD-1/PD-L1 interaction (unknown origin) incubated for 1 hr by HTRF assay; format: protein-complex assay
PBMC = experiment: Cytotoxicity against human PBMC cells assessed as reduction in cell viability at 1 to 4 uM measured after 48 hrs by CCK-8 assay; format: toxicity, cell-based; settings: dose 1-4 µM
[2] = Cmax in Sprague-Dawley rat at 40 mg/kg, IG measured upto 48 hrs by LC-MS/MS analysis; format: ADME, organism-based; set-up: dose 40 mg/kg, time < 48 hrs, route ig; settings: in vivo, po
[3] = AUC (0 to infinity) in Sprague-Dawley rat at 40 mg/kg, IG measured upto 48 hrs by LC-MS/MS analysis; format: ADME, organism-based; set-up: time < 48 hrs, dose 40 mg/kg, route ig; settings: in vivo, po, 48 h
[4] = AUC (0 to t) in Sprague-Dawley rat at 40 mg/kg, IG measured upto 48 hrs by LC-MS/MS analysis; format: ADME, organism-based; set-up: dose 40 mg/kg, time < 48 hrs, route ig; settings: in vivo, po
[5] = AUC (0 to infinity) in Sprague-Dawley rat at 8 mg/kg, iv measured upto 48 hrs by LC-MS/MS analysis; format: ADME, organism-based; set-up: time < 48 hrs, dose 8 mg/kg, route iv; settings: in vivo
[6] = Apparent volume of distribution in Sprague-Dawley rat at 10 mg/kg, ip measured upto 48 hrs by LC-MS/MS analysis; format: ADME, organism-based; settings: in vivo
[7] = Half life in Sprague-Dawley rat at 40 mg/kg, IG measured upto 48 hrs by LC-MS/MS analysis; format: ADME, organism-based; settings: in vivo, po, 40 mg/kg, 48 h
[8] = Cmax in Sprague-Dawley rat at 10 mg/kg, ip measured upto 48 hrs by LC-MS/MS analysis; format: ADME, organism-based; set-up: time < 48 hrs, dose 10 mg/kg, route ip; settings: in vivo
[9] = AUC (0 to infinity) in Sprague-Dawley rat at 10 mg/kg, ip measured upto 48 hrs by LC-MS/MS analysis; format: ADME, organism-based; set-up: time < 48 hrs, dose 10 mg/kg, route ip; settings: in vivo
MC-38 = experiment: Antitumor activity against mouse MC38 cells expressing human PD-L1 protein assessed as reduction in cell viability measured after 48 hrs by CCK-8 assay; format: functional, cell-based; settings: MC-38, 48 h
[10] = Apparent volume of distribution in Sprague-Dawley rat at 8 mg/kg, iv measured upto 48 hrs by LC-MS/MS analysis; format: ADME, organism-based; settings: in vivo, iv, 8 mg/kg, 48 h
[11] = Half life in Sprague-Dawley rat at 8 mg/kg, iv measured upto 48 hrs by LC-MS/MS analysis; format: ADME, organism-based; settings: in vivo, iv, 8 mg/kg, 48 h
[12] = AUC (0 to t) in Sprague-Dawley rat at 8 mg/kg, iv measured upto 48 hrs by LC-MS/MS analysis; format: ADME, organism-based; set-up: dose 8 mg/kg, time < 48 hrs, route iv; settings: in vivo
[13] = Tmax in Sprague-Dawley rat at 10 mg/kg, ip measured upto 48 hrs by LC-MS/MS analysis; format: ADME, organism-based; settings: in vivo
[14] = Clearance in Sprague-Dawley rat at 10 mg/kg, ip measured upto 48 hrs by LC-MS/MS analysis; format: ADME, organism-based; settings: in vivo
[15] = Clearance in Sprague-Dawley rat at 8 mg/kg, iv measured upto 48 hrs by LC-MS/MS analysis; format: ADME, organism-based; settings: in vivo, iv, 8 mg/kg, 48 h
[16] = Tmax in Sprague-Dawley rat at 8 mg/kg, iv measured upto 48 hrs by LC-MS/MS analysis; format: ADME, organism-based; settings: in vivo
[17] = Bioavailability in Sprague-Dawley rat at 40 mg/kg, IG measured upto 48 hrs by LC-MS/MS analysis; format: ADME, organism-based; settings: in vivo, po
[18] = Clearance in Sprague-Dawley rat at 40 mg/kg, IG measured upto 48 hrs by LC-MS/MS analysis; format: ADME, organism-based; settings: in vivo, po, 40 mg/kg, 48 h
[19] = Half life in Sprague-Dawley rat at 10 mg/kg, ip measured upto 48 hrs by LC-MS/MS analysis; format: ADME, organism-based; settings: in vivo
[20] = Cmax in Sprague-Dawley rat at 8 mg/kg, iv measured upto 48 hrs by LC-MS/MS analysis; format: ADME, organism-based; set-up: time < 48 hrs, dose 8 mg/kg, route iv; settings: in vivo
[21] = AUC (0 to t) in Sprague-Dawley rat at 10 mg/kg, ip measured upto 48 hrs by LC-MS/MS analysis; format: ADME, organism-based; set-up: time < 48 hrs, dose 10 mg/kg, route ip; settings: in vivo
[22] = Apparent volume of distribution in Sprague-Dawley rat at 40 mg/kg, IG measured upto 48 hrs by LC-MS/MS analysis; format: ADME, organism-based; settings: in vivo, po

Sequence of Programmed cell death protein 1/Programmed cell death 1 ligand 1 (Q15116 whole entry): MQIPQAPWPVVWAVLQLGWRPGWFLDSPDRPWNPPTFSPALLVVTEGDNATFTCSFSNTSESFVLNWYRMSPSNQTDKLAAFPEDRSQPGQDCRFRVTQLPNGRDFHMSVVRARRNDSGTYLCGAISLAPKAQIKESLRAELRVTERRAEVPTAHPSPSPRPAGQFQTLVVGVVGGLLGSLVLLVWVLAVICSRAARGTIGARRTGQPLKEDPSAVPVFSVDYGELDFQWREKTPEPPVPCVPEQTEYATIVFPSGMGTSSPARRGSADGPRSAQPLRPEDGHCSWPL
Sequence of Programmed cell death protein 1/Programmed cell death 1 ligand 1 (Q9NZQ7 whole entry): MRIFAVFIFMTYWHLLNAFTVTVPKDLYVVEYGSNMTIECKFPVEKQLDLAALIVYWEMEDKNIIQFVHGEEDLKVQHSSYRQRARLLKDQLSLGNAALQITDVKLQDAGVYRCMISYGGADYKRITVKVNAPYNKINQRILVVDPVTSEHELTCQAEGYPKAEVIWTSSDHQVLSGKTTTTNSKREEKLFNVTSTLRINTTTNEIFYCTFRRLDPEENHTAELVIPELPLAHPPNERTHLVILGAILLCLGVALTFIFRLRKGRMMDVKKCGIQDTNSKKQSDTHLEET

Q: With `COc1c(NCc2ccc(OCc3cccc(C#N)c3)c(CNCCO)c2)cccc1-c1ccccc1` as the compound, how does the pIC50 [1] read?
A: 4.49

Q: For `COc1nc(OCc2cccc(-c3ccccc3)c2C)ccc1CNCCNC(C)=O`, which Activity (PBMC) is on record?
A: Non-Toxic

Q: With `COc1c(COc2ccc(CN[C@H](CO)C(=O)O)c(OCc3cccc(C#N)c3)c2)cccc1-c1ccccc1` as the compound, how does the pIC50 [1] read?
A: 5.49

Q: With `COc1c(COc2ccc(CN[C@@H](CO)C(=O)O)c(OCc3cncc(C#N)c3)c2)cccc1-c1ccccc1F` as the compound, how does the pIC50 [1] read?
A: 3.21

Q: With `COc1c(NCc2ccc(OCc3cccc(C#N)c3)c(CNCCNC(C)=O)c2)cccc1-c1ccc2ccccc2c1` as the compound, how does the pIC50 [1] read?
A: < 4.49

Q: With `Cc1c(COc2ccc(CNCCO)c(OCc3cccc(C#N)c3)c2)cccc1-c1ccccc1F` as the compound, how does the pIC50 [1] read?
A: 4.42

Q: With `COc1c(COc2ccc(CNCCNC(C)=O)c(OCc3cccc(C#N)c3)c2)cccc1-c1cccc(F)c1` as the compound, how does the pIC50 [1] read?
A: 5.26

Q: With `COc1c(COc2ccc(CN[C@@H](CO)C(=O)O)c(OCc3cccc(C#N)c3)c2)cccc1-c1ccccc1F` as the compound, how does the pIC50 [1] read?
A: 2.67

Q: With `N#Cc1cccc(COc2cc(OCc3cccc(-c4ccccc4F)c3F)ccc2CN[C@@H](CO)C(=O)O)c1` as the compound, how does the pIC50 [1] read?
A: 3.94

Q: With `COc1c(COc2ccc(CN3CCC[C@@H]3C(=O)O)c(OCc3cccc(C#N)c3)c2)cccc1-c1ccccc1` as the compound, how does the pIC50 [1] read?
A: 4.71

Q: With `COc1c(NCc2ccc(OCc3cccc(C#N)c3)c(CNCCO)c2)cccc1-c1ccc2ccccc2c1` as the compound, how does the pIC50 [1] read?
A: < 4.49

Q: Which results are given for `N#Cc1cccc(COc2cc(OCc3cccc(-c4ccccc4F)c3Cl)ccc2CNCCO)c1`?
A: pIC50 [1]: 4.90; Activity (PBMC): Non-Toxic

Q: With `COc1c(COc2ccc(CNCCO)c(OCc3cccc(C#N)c3)c2)cccc1-c1ccccc1` as the compound, how does the pIC50 [1] read?
A: 5.62

Q: With `COc1c(COc2ccc(CNCCNC(C)=O)c(OCc3cncc(C#N)c3)c2)cccc1-c1ccccc1F` as the compound, how does the pIC50 [1] read?
A: 3.00

Q: With `COc1cc(COc2cc(OCc3cccc(-c4ccccc4)c3OC)ccc2CNCCNC(C)=O)ccn1` as the compound, how does the pIC50 [1] read?
A: 4.86

Q: With `COc1c(COc2ccc(CNCCNC(C)=O)c(OCc3cccc(C)c3)c2)cccc1-c1ccccc1` as the compound, how does the pIC50 [1] read?
A: 4.74

Q: With `COc1c(COc2ccc(CN3CC(C(=O)O)C3)c(OCc3cncc(C#N)c3)c2)cccc1-c1ccccc1` as the compound, how does the pIC50 [1] read?
A: 5.33

Q: With `N#Cc1cccc(COc2cc(OCc3cccc(-c4ccccc4F)c3Cl)ccc2CNCC(=O)O)c1` as the compound, how does the pIC50 [1] read?
A: 5.22

Q: And the Cmax [2]?
A: 1290 ng/mL

Q: And the AUC [3]?
A: 2869.12 ng·h/mL

Q: What about the AUC(0-t) at 48 h [4] of the same compound?
A: 2660 ng·h/mL

Q: And the AUC(0-inf) [5]?
A: 1840 ng·h/mL

Q: And the Vz [6]?
A: 8.28 L/kg

Q: What about the Activity (PBMC) of the same compound?
A: Non-Toxic

Q: And the t1/2 [7]?
A: 188 min

Q: What about the Cmax [8] of the same compound?
A: 786 ng/mL

Q: What about the AUC(0-inf) [9] of the same compound?
A: 2160 ng·h/mL

Q: And the pIC50 (MC-38)?
A: < 5.10

Q: And the Vz [10]?
A: 2.04 L/kg

Q: And the t1/2 [11]?
A: 6.6 min

Q: What about the AUC(0-t) at 48 h [12] of the same compound?
A: 1370 ng·h/mL

Q: What about the Tmax [13] of the same compound?
A: 49.8 min

Q: And the CL/F [14]?
A: 78 mL/min/kg

Q: What about the CL [15] of the same compound?
A: 75.3 mL/min/kg

Q: What about the Tmax [16] of the same compound?
A: 4.8 min

Q: And the bioavailability [17]?
A: 42%

Q: What about the CL [18] of the same compound?
A: 572.5 mL/min/kg

Q: What about the half-life [19] of the same compound?
A: 97.8 min

Q: And the Cmax [20]?
A: 2530 ng/mL

Q: What about the AUC(0-t) at 48 h [21] of the same compound?
A: 1970 ng·h/mL

Q: What about the Vz [22] of the same compound?
A: 65.83 L/kg

Q: With `COc1c(COc2ccc(CNCCNC(C)=O)c(OCc3cccc(C#N)c3)c2)cccc1-c1ccc(F)cc1` as the compound, how does the pIC50 [1] read?
A: 4.80

Q: With `COc1c(NCc2ccc(OCc3ccc(F)cc3)c(CNCCNC(C)=O)c2)cccc1-c1ccc2cc[nH]c2c1` as the compound, how does the pIC50 [1] read?
A: < 4.49

Q: With `COc1c(COc2ccc(CNCCNC(C)=O)c(OCc3cccc(F)c3)c2)cccc1-c1ccccc1` as the compound, how does the pIC50 [1] read?
A: 4.95

Q: With `COc1c(COc2ccc(CN3CCC(O)C3)c(OCc3cncc(C#N)c3)c2)cccc1-c1ccccc1` (stereo not given) as the compound, how does the pIC50 [1] read?
A: 5.21

Q: With `Cc1c(COc2ccc(CNCCO)c(OCc3cncc(C#N)c3)c2)cccc1-c1ccccc1F` as the compound, how does the pIC50 [1] read?
A: 5.07

Q: And the Activity (PBMC)?
A: Non-Toxic

Q: With `COc1c(COc2ccc(CN3C[C@@H](O)C[C@@H]3C(=O)O)c(OCc3cccc(C#N)c3)c2)cccc1-c1ccccc1` as the compound, how does the pIC50 [1] read?
A: 4.66

Q: With `N#Cc1cccc(COc2cc(OCc3cccc(-c4ccccc4F)c3)ccc2CNCCO)c1` as the compound, how does the pIC50 [1] read?
A: < 3.30

Q: With `COc1c(COc2cc(OCc3cncc(C#N)c3)c(CNCCNC(C)=O)cc2Cl)cccc1-c1ccccc1F` as the compound, how does the pIC50 [1] read?
A: 3.33

Q: With `COc1c(COc2ccc(CNCCNC(C)=O)c(OCc3cccc(C#N)c3)c2)cccc1-c1ccc2c(c1)OCCO2` as the compound, how does the pIC50 [1] read?
A: 5.54

Q: With `COc1c(COc2ccc(OCc3cccc(C#N)c3)c(CNCCNC(C)=O)c2)cccc1-c1ccccc1` as the compound, how does the pIC50 [1] read?
A: < 4.49

Q: With `COc1c(COc2ccc(CNCCNC(C)=O)c(OCc3cccnc3F)c2)cccc1-c1ccccc1` as the compound, how does the pIC50 [1] read?
A: 4.89

Q: With `COc1c(NCc2ccc(OCc3ccc(C(=O)O)cc3)c(CNCCO)c2)cccc1-c1ccccc1` as the compound, how does the pIC50 [1] read?
A: < 4.49
